Values quoted from earlier work as cited in patent US20120171270A1, “DUAL ACTION ORGANIC FORMULATION TO CONTROL TWO STAGES OF INSECT PESTS” (priority 2010, published 2012).

Experiments:
gypsy moth larvae [1] = details: 3-day exposure; 13-day evaluation; 2nd instar larvae; red oak leaf disks
gypsy moth larvae [2] = tested on: gypsy moth larvae
gypsy moth larvae [3] = details: 16 hours after a 2 minute crawling exposure to glass coated with a 4 mg/litre spinosad solution
[4] = tested on: mammalian and avian species; details: in vivo

Q: What does the source list for `CCCCCCCCCC[C@H]1O[C@H]1CCCCC(C)C` [disparlure]?
A: mating in low-density populations at lower doses (gypsy moth; 15, 6, and 3 grams per acre): can be suppressed; mating in low-density populations (gypsy moth; 30 grams per acre): suppresses mating

Q: Which results are given for spinosad?
A: LC50 (gypsy moth larvae [1]): 0.0015 mg AI/cm2; population reduction at low application rate (gypsy moth larvae [2]; application rate of 0.75 mg/litre): large population reductions; concentrations that effectively controlled larvae (gypsy moth larvae [2]; applied to foliage to run-off, 2nd instar larvae, laboratory and field): 3 ± 50 mg/L; larval population reduction (gypsy moth larvae [2]; at 3 to 50 mg/litre applied to run-off): 95±100%; toxicity in the laboratory, efficacy and persistence in the field versus permethrin (gypsy moth larvae [2]; in vivo): comparable to those achieved with permethrin; treated larvae paralyzed (gypsy moth larvae [3]): 50%; toxicity to mammalian and avian species [4]: little or no toxicity
